Laboratory results as given in the supplement of paper PMC10307832.

Experiments:
Experiment in all cases: relative viability (nuclei count vs DMSO), 5 days (fraction); higher = more cells survive
UMC-11 = test system: UMC-11
In short: (§1)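 Nuclei were stained with Hoechst during a one-step fixation (final 0.05% Triton X-100, 1% formaldehyde, 1 ug/ml Hoechst) carried out 5 days after dosing, then counted on 4× images. The cells, lung cancer lines in 1536-well plates, had been dosed by pin tool the day after seeding with one drug alone or a fixed anchor-drug dose plus five library-drug doses (not always all listed) in √10 steps. Relative viability is the nuclei count in treated wells divided by that in vehicle wells, and each value is the median of duplicate plates.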

SK-LU-1 = test system: SK-LU-1
In short: as §1

NCI-H460 = test system: NCI-H460
In short: as §1

NCI-H1944 = test system: NCI-H1944
In short: as §1

NCI-H1666 = test system: NCI-H1666
In short: as §1

HCC-78 = test system: HCC-78
In short: as §1

NCI-H1792 = test system: NCI-H1792
In short: as §1

HCC-366 = test system: HCC-366
In short: as §1

LC-2-ad = test system: LC-2-ad
In short: as §1

HOP-62 = test system: HOP-62
In short: as §1

A-427 = test system: A-427
In short: as §1

EPLC-272H = test system: EPLC-272H
In short: as §1

LU99A = test system: LU99A
In short: as §1

LXF-289 = test system: LXF-289
In short: as §1

NCI-H2170 = test system: NCI-H2170
In short: as §1

NCI-H2009 = test system: NCI-H2009
In short: as §1

NCI-H1793 = test system: NCI-H1793
In short: as §1

COR-L 105 = test system: COR-L 105
In short: as §1

NCI-H1915 = test system: NCI-H1915
In short: as §1

NCI-H2085 = test system: NCI-H2085
In short: as §1

CCN(CC)CCCCNc1ncc2cc(-c3cc(OC)cc(OC)c3)c(NC(=O)NC(C)(C)C)nc2n1 + CC1(C)CCC(c2ccc(Cl)cc2)=C(CN2CCN(c3ccc(C(=O)NS(=O)(=O)c4ccc(N[C@H](CCN5CCOCC5)CSc5ccccc5)c(S(=O)(=O)C(F)(F)F)c4)cc3)CC2)C1 [Navitoclax] (partner 0.5 µM)
relative viability (UMC-11; first compound 0.01 µM): 0.303
relative viability (UMC-11; first compound 0.03162 µM): 0.293
relative viability (UMC-11; first compound 0.1 µM): 0.318
relative viability (UMC-11; first compound 0.3162 µM): 0.318
relative viability (UMC-11; first compound 1 µM): 0.308
relative viability (SK-LU-1; first compound 0.01 µM): 1.02
relative viability (SK-LU-1; first compound 0.03162 µM): 0.894
relative viability (SK-LU-1; first compound 0.1 µM): 1.08
relative viability (SK-LU-1; first compound 0.3162 µM): 1.18
relative viability (SK-LU-1; first compound 1 µM): 0.639
relative viability (NCI-H460; first compound 0.01 µM): 1.3
relative viability (NCI-H460; first compound 0.03162 µM): 1.18
relative viability (NCI-H460; first compound 0.3162 µM): 1.21
relative viability (NCI-H460; first compound 1 µM): 1.09
relative viability (NCI-H1944; first compound 0.01 µM): 1.18
relative viability (NCI-H1944; first compound 0.03162 µM): 1.02
relative viability (NCI-H1944; first compound 0.1 µM): 1.08
relative viability (NCI-H1944; first compound 0.3162 µM): 1.09
relative viability (NCI-H1944; first compound 1 µM): 1.02
relative viability (NCI-H1666; first compound 0.01 µM): 1.03
relative viability (NCI-H1666; first compound 0.03162 µM): 1.02
relative viability (NCI-H1666; first compound 0.1 µM): 0.972
relative viability (NCI-H1666; first compound 0.3162 µM): 1.12
relative viability (NCI-H1666; first compound 1 µM): 0.871
relative viability (HCC-78; first compound 0.03162 µM): 0.75
relative viability (HCC-78; first compound 0.1 µM): 0.618
relative viability (HCC-78; first compound 0.3162 µM): 0.809
relative viability (HCC-78; first compound 1 µM): 0.64
relative viability (NCI-H1792; first compound 0.01 µM): 0.688
relative viability (NCI-H1792; first compound 0.03162 µM): 0.739
relative viability (NCI-H1792; first compound 0.1 µM): 0.712
relative viability (NCI-H1792; first compound 0.3162 µM): 1.49
relative viability (NCI-H1792; first compound 1 µM): 0.19
relative viability (HCC-366; first compound 0.01 µM): 1.16
relative viability (HCC-366; first compound 0.03162 µM): 1.09
relative viability (HCC-366; first compound 0.1 µM): 1.2
relative viability (HCC-366; first compound 0.3162 µM): 1.27
relative viability (HCC-366; first compound 1 µM): 1.2
relative viability (LC-2-ad; first compound 0.01 µM): 0.425
relative viability (LC-2-ad; first compound 0.03162 µM): 0.372
relative viability (LC-2-ad; first compound 0.1 µM): 0.558
relative viability (LC-2-ad; first compound 0.3162 µM): 0.511
relative viability (LC-2-ad; first compound 1 µM): 0.487
relative viability (HOP-62; first compound 0.01 µM): 1.15
relative viability (HOP-62; first compound 0.03162 µM): 1.13
relative viability (HOP-62; first compound 0.1 µM): 1.29
relative viability (HOP-62; first compound 0.3162 µM): 0.974
relative viability (HOP-62; first compound 1 µM): 1.06
relative viability (A-427; first compound 0.01 µM): 0.991
relative viability (A-427; first compound 0.03162 µM): 1.03
relative viability (A-427; first compound 0.1 µM): 1.11
relative viability (A-427; first compound 0.3162 µM): 1.08
relative viability (A-427; first compound 1 µM): 0.908
relative viability (EPLC-272H; first compound 0.01 µM): 1.14
relative viability (EPLC-272H; first compound 0.1 µM): 1.07
relative viability (EPLC-272H; first compound 0.3162 µM): 1.29
relative viability (EPLC-272H; first compound 1 µM): 0.995
relative viability (LU99A; first compound 0.01 µM): 0.716
relative viability (LU99A; first compound 0.03162 µM): 0.862
relative viability (LU99A; first compound 0.1 µM): 0.949
relative viability (LU99A; first compound 0.3162 µM): 0.85
relative viability (LU99A; first compound 1 µM): 0.69
relative viability (LXF-289; first compound 0.01 µM): 1.02
relative viability (LXF-289; first compound 0.03162 µM): 0.968
relative viability (LXF-289; first compound 0.1 µM): 1.07
relative viability (LXF-289; first compound 0.3162 µM): 0.939
relative viability (LXF-289; first compound 1 µM): 0.834
relative viability (NCI-H2170; first compound 0.01 µM): 0.586
relative viability (NCI-H2170; first compound 0.03162 µM): 0.75
relative viability (NCI-H2170; first compound 0.1 µM): 0.558
relative viability (NCI-H2170; first compound 0.3162 µM): 0.641
relative viability (NCI-H2170; first compound 1 µM): 0.528
relative viability (NCI-H2009; first compound 0.01 µM): 1.25
relative viability (NCI-H2009; first compound 0.03162 µM): 1.14
relative viability (NCI-H2009; first compound 0.1 µM): 1.21
relative viability (NCI-H2009; first compound 0.3162 µM): 1.31
relative viability (NCI-H2009; first compound 1 µM): 1.11
relative viability (NCI-H1793; first compound 0.01 µM): 0.988
relative viability (NCI-H1793; first compound 0.1 µM): 0.326
relative viability (NCI-H1793; first compound 0.3162 µM): 0.439
relative viability (NCI-H1793; first compound 1 µM): 0.326
relative viability (COR-L 105; first compound 0.01 µM): 0.811
relative viability (COR-L 105; first compound 0.03162 µM): 0.81
relative viability (COR-L 105; first compound 0.1 µM): 0.83
relative viability (COR-L 105; first compound 0.3162 µM): 0.872
relative viability (COR-L 105; first compound 1 µM): 0.883
relative viability (NCI-H1915; first compound 0.01 µM): 0.826
relative viability (NCI-H1915; first compound 0.03162 µM): 0.795
relative viability (NCI-H1915; first compound 0.1 µM): 0.838
relative viability (NCI-H1915; first compound 0.3162 µM): 0.749
relative viability (NCI-H1915; first compound 1 µM): 0.805
relative viability (NCI-H2085; first compound 0.01 µM): 1.08
relative viability (NCI-H2085; first compound 0.03162 µM): 1.22
relative viability (NCI-H2085; first compound 0.1 µM): 1.33
relative viability (NCI-H2085; first compound 0.3162 µM): 1.22
relative viability (NCI-H2085; first compound 1 µM): 1.06
